Measurements reported in US11358950B2, “SMAC mimetics used as IAP inhibitors and use thereof” (CHIA TAI TIANQING PHARMACEUTICAL GROUP CO., LTD., priority 2017, dated 2022).

Key:
[1] = biological target: T1, cIAP1 BIR3 (Homo sapiens, UniProt Q13490); experiment: Binding experiment of cIAP1 BIR3 (fluorescence polarization); conditions: 20 nM cIAP1 BIR3, 5 nM probe ARPFAQ-K(5-FAM)-NH2, 60 min
T1 construct: covering amino acids 258 to 363; GST; His; purchased RBC APT-11-370; host or cells: E. coli
Description: (§1) Buffer system for the test (a buffer for cIAP1 BIR3 or XIAP BIR3): 100 mM potassium phosphate, pH 7.5; 0.1% BSA; 0.005% Triton X-100; and 1% dimethyl sulfoxide.
(§2) Probe: ARPFAQ-K(5-FAM)-NH2.
cIAP1-BIR3-his: RBC Cat #APT-11-370, the BIR3 domain of human cIAP1 (covering amino acids 258 to 363; cIAP1 BIR3), as a GST-fusion protein expressed and purified from E. coli.
(§3) Reaction conditions: 5 nM ARPFAQ-K(5-FAM)-NH2, 20 nM cIAP1 BIR3 and 30 nM XIAP BIR3.
(§4) First, a fresh buffer for cIAP1 BIR3 or XIAP BIR3 was prepared, a cIAP1 BIR3 or XIAP BIR3 solution (2-fold diluted) was added thereto, and then a compound to be tested which had been dissolved in 100% DMSO was added into the buffer solution containing cIAP1 BIR3 or XIAP BIR3 by an acoustic technique. Thereafter, the probe (2-fold diluted) was added, and the resultant was mixed and incubated in the dark at room temperature for 60 minutes. The fluorescence polarization was measured and the mP value was calculated. Finally, the IC50 value was obtained.

[2] = test system: MDA-MB-231 cells; experiment: In-vitro cell viability test (CellTiter-Glo, 7 days); assay type: cell-based; conditions: Homo sapiens, 168 h, 7 days incubation
Description: RPMI 1640 medium (Invitrogen-22400089); fetal bovine serum (Invitrogen-10099141); Trypsin, 0.05% (1×) with EDTA 4Na (Invitrogen-25300062); luminescent cell viability assay kit (Promega-G7573); Dulbecco's phosphate buffered saline (HyClone-SH30028.01B); and 384-well plate (Corning-6007680). Envision Multi-label Analyzer.
1. 30 μL of MDA-MB-231 cell suspension, which contained 250 MDA-MB-231 cells, was added into the wells of a 384-microwell plate.
2. 20 μL of a test compound (the test compounds were formulated at a high concentration of 10 μM, the test compounds were subjected to a 5-fold gradient dilution, and each compound was diluted to 10 concentration gradients) was added, and then the cell plate was put back into a carbon dioxide incubator to be incubated for 7 days.
3. The cell plate was kept flat at room temperature for 30 minutes.
4. 20 μL of a Promega CellTiter-Glo reagent was added into each well of the cell plate.
5. After 10 minutes, the Envision Multi-label Analyzer was used for data reading.

[3] = biological target: T2, XIAP BIR3 (Homo sapiens, UniProt P98170); experiment: Binding experiment of XIAP BIR3 (fluorescence polarization); conditions: 30 nM XIAP BIR3, 5 nM probe ARPFAQ-K(5-FAM)-NH2, 60 min
T2 construct: covering amino acids 255 to 356; GST; His; purchased RBC APT-11-374; host or cells: E. coli
T2 sequence (P98170 255-356): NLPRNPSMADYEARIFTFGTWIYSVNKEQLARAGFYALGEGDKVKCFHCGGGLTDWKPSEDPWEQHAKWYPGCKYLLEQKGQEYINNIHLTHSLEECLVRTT
Description: as §1, §2
XIAP-BIR3-his: RBC Cat #APT-11-374, the BIR3 domain of XIAP (covering amino acids 255 to 356; XIAP BIR3), as a GST-fusion protein expressed and purified from E. coli.
as §3, §4

T1 sequence (Q13490 258-363): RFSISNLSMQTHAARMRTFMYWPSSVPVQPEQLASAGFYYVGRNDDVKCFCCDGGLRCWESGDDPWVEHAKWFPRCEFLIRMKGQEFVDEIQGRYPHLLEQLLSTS

IC50 [1] [nM]	IC50 [2] [nM]	IC50 [3] [nM]	Structure (SMILES)
3	85	42	CN[C@@H](C)C(=O)N[C@H](C(=O)N1CCC[C@H]1Cn1cc(C(N)=O)c2cc(F)ccc21)C1CCCCC1 [Example 22]
5.1	22.5	42.5	CN[C@@H](C)C(=O)N[C@H](C(=O)N1CCC[C@H]1Cn1cc(C#N)c2cc(Cl)ccc21)C1CCCCC1 [Example 18]
1.1	181	60	CN[C@@H](C)C(=O)N[C@H](C(=O)N1CCC[C@H]1Cn1cc(-c2ccnn2C)c2cc(F)ccc21)C1CCCCC1 [Example 26]
5.7	26	20	CN[C@@H](C)C(=O)N[C@H](C(=O)N1CCC[C@H]1Cn1cc(C(C)=O)c2cc(Cl)c(F)cc21)C1CCCCC1 [Example 9]
4.2	16.4	37.4	CN[C@@H](C)C(=O)N[C@H](C(=O)N1CCC[C@H]1Cn1cc(S(C)(=O)=O)c2cc(Cl)ccc21)C1CCCCC1 [Example 21]
58.3	497	9.3	CN[C@@H](C)C(=O)N[C@H](C(=O)N1CCC[C@H]1Cn1cc(C(C)=O)c2cccc(Cl)c21)C1CCCCC1 [Example 6]
4.9	16.6	45	CN[C@@H](C)C(=O)N[C@H](C(=O)N1CCC[C@H]1Cn1cc(C(C)=O)c2cc(Br)ccc21)C1CCCCC1 [Example 7]
5.2	36.7	27.3	CN[C@@H](C)C(=O)N[C@H](C(=O)N1CCC[C@H]1Cn1cc(N2CCCC2=O)c2cc(Cl)ccc21)C1CCCCC1 [Example 28]
1.1	75	53.9	CN[C@@H](C)C(=O)N[C@H](C(=O)N1CCC[C@H]1Cn1cc(S(C)(=O)=O)c2cc(F)ccc21)C1CCCCC1 [Example 20]
5.6	75	40.3	CN[C@@H](C)C(=O)N[C@H](C(=O)N1CCC[C@H]1Cn1cc(C(C)=O)c2cc(Cl)c(Cl)cc21)C1CCCCC1 [Example 8]
4.4	47.6	21.6	CN[C@@H](C)C(=O)N[C@H](C(=O)N1CCC[C@H]1Cn1cc(N2CCOC2=O)c2cc(Cl)ccc21)C1CCCCC1 [Example 30]
4.6	43.1	129	CN[C@@H](C)C(=O)N[C@H](C(=O)N1CCC[C@H]1Cn1nc(C#N)c2cc(Cl)ccc21)C1CCCCC1 [Example 19]
2.6	220	97	CN[C@@H](C)C(=O)N[C@H](C(=O)N1CCC[C@H]1Cn1cc(C(C)=O)c2c(Cl)cccc21)C1CCCCC1 [Example 4]
4	93	258	CN[C@@H](C)C(=O)N[C@H](C(=O)N1CCC[C@H]1Cn1nc(C(C)=O)c2cc(F)ccc21)C1CCCCC1 [Example 15]
6.2	57.7	49.9	CN[C@@H](C)C(=O)N[C@H](C(=O)N1CCC[C@H]1Cn1nc(C(C)=O)c2cc(Cl)ccc21)C1CCCCC1 [Example 14]
2.6	75	95.9	CN[C@@H](C)C(=O)N[C@H](C(=O)N1CCC[C@H]1Cn1cc(C(C)=O)c2ccc(Cl)cc21)C1CCCCC1 [Example 5]
4.1	73	19.2	CN[C@@H](C)C(=O)N[C@H](C(=O)N1CCC[C@H]1Cn1cc(C(=O)C(C)C)c2cc(Cl)ccc21)C1CCCCC1 [Example 24]
4.4	282	46.4	CN[C@@H](C)C(=O)N[C@H](C(=O)N1CCC[C@H]1Cn1cc(-c2ccnn2C)c2cc(Cl)ccc21)C1CCCCC1 [Example 27]
1.9	79	80.7	CN[C@@H](C)C(=O)N[C@H](C(=O)N1CCC[C@H]1Cn1cc(C#N)c2cc(F)ccc21)C1CCCCC1 [Example 17]
6.1	134	31.4	CN[C@@H](C)C(=O)N[C@H](C(=O)N1CCC[C@H]1Cn1cc(N2CCN(C)C2=O)c2cc(Cl)ccc21)C1CCCCC1 [Example 29]
4.5	32.4	27.2	CN[C@@H](C)C(=O)N[C@H](C(=O)N1CCC[C@H]1Cn1cc(C(C)=O)c2c(F)c(Cl)ccc21)C1CCCCC1 [Example 10]

Structure (SMILES)	IC50 [1] [nM]	IC50 [2] [nM]	IC50 [3] [nM]
CN[C@@H](C)C(=O)N[C@H](C(=O)N1CCC[C@H]1Cn1cc(C(C)=O)c2cc(F)ccc21)C1CCCCC1 [Example 1]	3.7	70	74.7
CN[C@@H](C)C(=O)N[C@H](C(=O)N1C[C@@H](Oc2ccccc2)C[C@H]1Cn1cc(C(C)=O)c2cc(F)ccc21)C1CCCCC1 [Example 31]	3.7	1460	49.1
CN[C@@H](C)C(=O)N[C@H](C(=O)N1CCC[C@H]1Cn1cc(C(=O)N(C)C)c2cc(Cl)ccc21)C1CCCCC1 [Example 23]	4.6	45.2	21.3
CN[C@@H](C)C(=O)N[C@H](C(=O)N1CCC[C@H]1Cn1cc(-c2ccccc2C)c2cc(F)ccc21)C1CCCCC1 [Example 25]	6.8	1150	208
CN[C@@H](C)C(=O)N[C@H](C(=O)N1CCC[C@H]1Cn1cc(C(C)=O)c2cc(C(F)(F)F)ccc21)C1CCCCC1 [Example 3]	1	16	18.1
CN[C@@H](C)C(=O)N[C@H](C(=O)N1CCC[C@H]1Cn1cc(C(C)=O)c2cc(Cl)cnc21)C1CCCCC1 [Example 16]	8.4	109	346
CN[C@@H](C)C(=O)N[C@H](C(=O)N1CCC[C@H]1Cn1c(C)c(C(C)=O)c2cc(Cl)ccc21)C1CCCCC1 [Example 13]	5	44.3	30.6
CN[C@@H](C)C(=O)N[C@H](C(=O)N1CCC[C@H]1Cn1cc(C(C)=O)c2cc(OC(F)(F)F)ccc21)C1CCCCC1 [Example 11]	5.2	74.8	139
